Experimental data: patent publication US20140228349A1, “5,7-SUBSTITUTED-IMIDAZO[1,2-C]PYRIMIDINES” (Array BioPharma Inc., priority 2011, published 2014)

Columns and labels:
Assay type in all cases: biochemical
[1] = target: T1, Human Tyk2 kinase domain (Homo sapiens, UniProt P29597); test: Tyk2 Inhibition Assay (Omnia kinase fluorescence peptide substrate); conditions: averaged IC50 ranges; 10 μM (Km app) or 1 mM ATP, 2 nM Tyk2
T1 construct: comprising amino acids 886 to 1187; His10 (10 histidine residues) (C, cleaved yes); made in house
T1 sequence (P29597 886-1187): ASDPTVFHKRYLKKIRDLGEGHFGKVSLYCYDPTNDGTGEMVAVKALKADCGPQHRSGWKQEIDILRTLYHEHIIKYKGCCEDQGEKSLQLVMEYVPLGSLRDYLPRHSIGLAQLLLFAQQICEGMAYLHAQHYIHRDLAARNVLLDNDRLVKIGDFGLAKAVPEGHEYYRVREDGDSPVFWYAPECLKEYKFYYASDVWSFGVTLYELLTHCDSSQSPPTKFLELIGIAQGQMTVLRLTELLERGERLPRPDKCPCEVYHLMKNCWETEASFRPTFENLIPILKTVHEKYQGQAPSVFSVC
Summary of the method: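 Phosphorylation of 8 μM Omnia Y12 peptide followed kinetically by Sox fluorescence, ex 360/em 485 nm, every 50 s for 45 min. Enzyme: 2 nM Tyk2 kinase domain (aa 886–1187, His tag removed); ATP at 10 μM (Km app) or 1 mM; buffer HEPES pH 7.4 with MgCl2, Triton X-100, DTT. 10-point curves up to 10 μM, IC50 from 4-parameter logistic fit.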

[2] = target: T2, JAK3 (Homo sapiens, UniProt P52333); test: JAK3 Inhibition Assay (Omnia kinase fluorescence peptide substrate); conditions: averaged IC50 ranges; 10 μM (Km app) or 1 mM ATP, 2.5 nM JAK3
T2 construct: purchased Invitrogen Corporation, Carlsbad, Calif; IVGN PV4080
T2 sequence (P52333 1-1124): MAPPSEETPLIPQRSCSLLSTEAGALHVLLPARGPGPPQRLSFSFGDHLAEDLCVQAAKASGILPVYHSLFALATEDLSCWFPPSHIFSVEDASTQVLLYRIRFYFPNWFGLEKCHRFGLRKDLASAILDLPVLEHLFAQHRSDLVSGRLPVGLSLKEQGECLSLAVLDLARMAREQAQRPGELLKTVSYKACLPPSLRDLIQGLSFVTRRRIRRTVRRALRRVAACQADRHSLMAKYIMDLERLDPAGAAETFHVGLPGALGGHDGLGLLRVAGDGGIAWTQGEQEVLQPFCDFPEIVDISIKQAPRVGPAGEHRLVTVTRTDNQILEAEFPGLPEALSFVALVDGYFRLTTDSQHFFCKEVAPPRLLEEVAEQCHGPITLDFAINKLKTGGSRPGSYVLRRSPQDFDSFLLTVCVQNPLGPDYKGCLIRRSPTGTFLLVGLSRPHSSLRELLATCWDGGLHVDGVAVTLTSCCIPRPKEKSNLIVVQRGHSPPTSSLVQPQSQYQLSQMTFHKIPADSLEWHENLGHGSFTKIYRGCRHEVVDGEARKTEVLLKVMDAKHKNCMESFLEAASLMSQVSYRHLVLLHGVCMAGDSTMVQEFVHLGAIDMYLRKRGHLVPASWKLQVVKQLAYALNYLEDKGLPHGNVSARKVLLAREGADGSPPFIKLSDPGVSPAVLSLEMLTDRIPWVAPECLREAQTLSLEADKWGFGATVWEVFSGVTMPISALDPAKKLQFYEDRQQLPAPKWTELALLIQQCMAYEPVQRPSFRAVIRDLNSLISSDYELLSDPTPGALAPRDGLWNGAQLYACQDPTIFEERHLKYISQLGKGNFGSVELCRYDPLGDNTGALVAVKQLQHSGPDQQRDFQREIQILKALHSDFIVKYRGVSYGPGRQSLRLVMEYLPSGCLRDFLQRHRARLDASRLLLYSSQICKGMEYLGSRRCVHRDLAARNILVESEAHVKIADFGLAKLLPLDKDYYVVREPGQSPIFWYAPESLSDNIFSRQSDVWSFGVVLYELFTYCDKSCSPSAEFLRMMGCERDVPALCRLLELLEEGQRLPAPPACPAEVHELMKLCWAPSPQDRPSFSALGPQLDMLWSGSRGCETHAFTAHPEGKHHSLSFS
Summary of the method: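 IC50 is the concentration giving 50 percent of control on a 4-parameter logistic fit of 10-point, 3-fold dilutions from a 10 μM top dose, at 2% final DMSO. Kinetic Sox fluorescence (360/485 nm) was monitored every 50 s for 45 min. Mix: JAK3 2.5 nM, Omnia Y7 peptide 10 μM, ATP 10 μM (Km app) or 1 mM, in HEPES pH 7.4 buffer with MgCl2, Triton X-100 and DTT.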

[3] = target: T3, JAK2 (Homo sapiens, UniProt O60674); test: JAK2 Inhibition Assay (Omnia kinase fluorescence peptide substrate); conditions: averaged IC50 ranges; 25 μM (Km app) or 1 mM ATP, 5 nM JAK2
T3 construct: purchased Invitrogen Corporation, Carlsbad, Calif; IVGN PV4288

[4] = target: T4, JAK1 (Homo sapiens, UniProt P23458); test: JAK1 Inhibition Assay (Omnia kinase fluorescence peptide substrate); conditions: averaged IC50 ranges; 40 μM (Km app) or 1 mM ATP, 15 nM JAK1
T4 construct: purchased Invitrogen Corporation, Carlsbad, Calif; IVGN PV4775
Summary of the method: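 15 nM JAK1, 8 μM Omnia Y12 peptide, 40 μM (Km app) or 1 mM ATP; 25 mM HEPES pH 7.4, 10 mM MgCl2, 2% DMSO. Fluorescence (ex 360/em 485 nm) read every 50 s over 45 min. IC50 by 4-parameter fit of percent of control, top dose 10 μM.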

T4 sequence (P23458 whole entry): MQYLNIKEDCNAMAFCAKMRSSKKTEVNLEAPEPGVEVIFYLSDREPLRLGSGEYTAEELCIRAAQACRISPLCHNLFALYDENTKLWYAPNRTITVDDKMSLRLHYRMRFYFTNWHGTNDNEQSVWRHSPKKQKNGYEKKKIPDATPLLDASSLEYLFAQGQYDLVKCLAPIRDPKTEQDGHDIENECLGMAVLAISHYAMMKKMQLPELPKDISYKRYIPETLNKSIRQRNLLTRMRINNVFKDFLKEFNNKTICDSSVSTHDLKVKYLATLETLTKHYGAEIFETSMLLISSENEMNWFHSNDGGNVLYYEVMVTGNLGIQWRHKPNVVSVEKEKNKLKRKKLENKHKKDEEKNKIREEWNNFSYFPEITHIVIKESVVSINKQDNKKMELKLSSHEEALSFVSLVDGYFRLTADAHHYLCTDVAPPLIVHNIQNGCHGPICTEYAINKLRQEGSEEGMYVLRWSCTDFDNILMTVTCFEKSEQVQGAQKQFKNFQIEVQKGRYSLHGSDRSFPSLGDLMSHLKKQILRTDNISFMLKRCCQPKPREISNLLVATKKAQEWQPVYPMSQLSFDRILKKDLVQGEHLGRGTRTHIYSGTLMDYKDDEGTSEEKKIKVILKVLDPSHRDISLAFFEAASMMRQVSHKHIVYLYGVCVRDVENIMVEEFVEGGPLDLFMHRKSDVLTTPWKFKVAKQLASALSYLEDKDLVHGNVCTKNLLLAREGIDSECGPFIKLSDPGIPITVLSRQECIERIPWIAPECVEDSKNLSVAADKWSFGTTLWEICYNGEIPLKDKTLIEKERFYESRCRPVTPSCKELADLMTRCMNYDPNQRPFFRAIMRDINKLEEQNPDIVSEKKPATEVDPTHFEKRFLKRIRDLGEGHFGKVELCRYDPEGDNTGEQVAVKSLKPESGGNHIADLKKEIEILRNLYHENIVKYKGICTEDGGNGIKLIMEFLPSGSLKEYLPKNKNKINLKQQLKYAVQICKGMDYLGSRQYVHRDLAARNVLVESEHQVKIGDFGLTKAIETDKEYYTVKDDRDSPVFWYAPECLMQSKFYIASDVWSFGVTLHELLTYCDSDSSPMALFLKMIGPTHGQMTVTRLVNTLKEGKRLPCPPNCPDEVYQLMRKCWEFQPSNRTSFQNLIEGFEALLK
T3 sequence (O60674 whole entry): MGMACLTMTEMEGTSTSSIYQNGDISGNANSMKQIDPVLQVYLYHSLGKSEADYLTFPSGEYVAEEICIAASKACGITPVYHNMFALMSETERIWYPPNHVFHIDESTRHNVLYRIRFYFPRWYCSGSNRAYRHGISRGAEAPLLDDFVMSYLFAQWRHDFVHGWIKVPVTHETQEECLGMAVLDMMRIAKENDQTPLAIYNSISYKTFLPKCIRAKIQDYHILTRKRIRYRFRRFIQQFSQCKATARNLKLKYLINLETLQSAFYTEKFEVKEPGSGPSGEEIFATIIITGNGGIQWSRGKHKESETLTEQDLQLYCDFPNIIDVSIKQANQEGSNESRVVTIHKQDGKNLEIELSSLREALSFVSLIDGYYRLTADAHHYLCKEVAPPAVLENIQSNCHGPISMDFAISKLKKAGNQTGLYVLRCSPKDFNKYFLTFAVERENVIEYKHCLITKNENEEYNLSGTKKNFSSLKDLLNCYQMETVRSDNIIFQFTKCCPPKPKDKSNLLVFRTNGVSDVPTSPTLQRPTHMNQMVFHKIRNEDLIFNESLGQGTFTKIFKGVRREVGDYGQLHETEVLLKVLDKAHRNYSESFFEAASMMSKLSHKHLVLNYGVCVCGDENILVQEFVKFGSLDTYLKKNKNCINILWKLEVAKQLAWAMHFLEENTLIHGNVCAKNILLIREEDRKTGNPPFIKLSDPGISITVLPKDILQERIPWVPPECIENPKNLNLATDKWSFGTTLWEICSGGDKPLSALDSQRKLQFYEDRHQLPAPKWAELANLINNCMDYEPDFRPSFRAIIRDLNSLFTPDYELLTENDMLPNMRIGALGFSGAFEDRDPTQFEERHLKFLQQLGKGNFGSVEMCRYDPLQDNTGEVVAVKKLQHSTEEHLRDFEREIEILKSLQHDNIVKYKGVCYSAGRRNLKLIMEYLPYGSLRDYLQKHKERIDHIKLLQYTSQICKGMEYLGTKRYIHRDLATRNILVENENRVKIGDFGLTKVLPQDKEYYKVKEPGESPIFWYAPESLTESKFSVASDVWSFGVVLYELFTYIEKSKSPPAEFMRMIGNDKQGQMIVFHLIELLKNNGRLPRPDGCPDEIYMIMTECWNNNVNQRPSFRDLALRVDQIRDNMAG

IC50 [1] [nM]	IC50 [2] [nM]	IC50 [3] [nM]	IC50 [4] [nM]	SMILES
100 to 1000	> 1000	100 to 1000	> 1000	COCCC(C1CCC1)n1cc(-c2nc(-c3cnn(C)c3)cc3nccn23)cn1 (stereo not drawn) [Example 76, 5-(1-(1-cyclobutyl-3-methoxypropyl)-1H-pyrazol-4-yl)-7-(1-methyl-1H-pyrazol-4-yl)imidazo[1,2-c]pyrimidine]
100 to 1000	100 to 1000	100 to 1000	100 to 1000	COC(=O)CC(c1ccccc1)n1cc(-c2nc(-c3cnn(C)c3)cc3nccn23)cn1 (stereo not drawn) [Example 77, methyl 3-(4-(7-(1-methyl-1H-pyrazol-4-yl)imidazo[1,2-c]pyrimidin-5-yl)-1H-pyrazol-1-yl)-3-phenylpropanoate]
< 10	100 to 1000	10 to 100	10 to 100	O=S(=O)(N1CC(CCF)(n2cc(-c3nc(-c4cn[nH]c4)cc4nccn34)cn2)C1)C(F)(F)F [Example 78, 5-(1-(3-(2-fluoroethyl)-1-((trifluoromethyl)sulfonyl)azetidin-3-yl)-1H-pyrazol-4-yl)-7-(1H-pyrazol-4-yl)imidazo[1,2-c]pyrimidine]
10 to 100	100 to 1000	100 to 1000	100 to 1000	Cn1ccc(-c2cc3nccn3c(-c3cnn(C4(CCF)CN(S(=O)(=O)C(F)(F)F)C4)c3)n2)cc1=O [Example 79, 4-(5-(1-(3-(2-fluoroethyl)-1-((trifluoromethyl)sulfonyl)azetidin-3-yl)-1H-pyrazol-4-yl)imidazo[1,2-c]pyrimidin-7-yl)-1-methylpyridin-2(1H)-one]
100 to 1000	> 1000	100 to 1000	> 1000	COC(=O)CC(c1ccc(F)cc1)n1cc(-c2nc(-c3cnn(C)c3)cc3nccn23)cn1 (stereo not drawn) [Example 80, methyl 3-(4-fluorophenyl)-3-(4-(7-(1-methyl-1H-pyrazol-4-yl)imidazo[1,2-c]pyrimidin-5-yl)-1H-pyrazol-1-yl)propanoate]
100 to 1000	100 to 1000	100 to 1000	100 to 1000	Cn1cc(-c2cc3nccn3c(-c3cnn(C(CCO)c4ccc(F)cc4)c3)n2)cn1 (stereo not drawn) [Example 81, 3-(4-fluorophenyl)-3-(4-(7-(1-methyl-1H-pyrazol-4-yl)imidazo[1,2-c]pyrimidin-5-yl)-1H-pyrazol-1-yl)propan-1-ol]
100 to 1000	100 to 1000	100 to 1000	100 to 1000	COCCC(c1ccc(F)cc1)n1cc(-c2nc(-c3cnn(C)c3)cc3nccn23)cn1 (stereo not drawn) [Example 82, 5-(1-(1-(4-fluorophenyl)-3-methoxypropyl)-1H-pyrazol-4-yl)-7-(1-methyl-1H-pyrazol-4-yl)imidazo[1,2-c]pyrimidine]
10 to 100	100 to 1000	100 to 1000	100 to 1000	CCCCC1(n2cc(-c3nc(-c4cnn(C)c4)cc4nccn34)cn2)CN(S(=O)(=O)C(F)(F)F)C1 [Example 83, 5-(1-(3-butyl-1-((trifluoromethyl)sulfonyl)azetidin-3-yl)-1H-pyrazol-4-yl)-7-(1-methyl-1H-pyrazol-4-yl)imidazo[1,2-c]pyrimidine]
100 to 1000	> 1000	100 to 1000	100 to 1000	Cc1nn(C)cc1S(=O)(=O)N1CC(CCF)(n2cc(-c3nc(-c4cnn(C)c4)cc4nccn34)cn2)C1 [Example 85, 5-(1-(1-((1,3-dimethyl-1H-pyrazol-4-yl)sulfonyl)-3-(2-fluoroethyl)azetidin-3-yl)-1H-pyrazol-4-yl)-7-(1-methyl-1H-pyrazol-4-yl)imidazo[1,2-c]pyrimidine]
100 to 1000	> 1000	100 to 1000	> 1000	Cn1cc(-c2cc3nccn3c(-c3cnn(C4(CCF)CN(S(=O)(=O)CC(F)(F)F)C4)c3)n2)cn1 [Example 86, 5-(1-(3-(2-fluoroethyl)-1-((2,2,2-trifluoroethyl)sulfonyl)azetidin-3-yl)-1H-pyrazol-4-yl)-7-(1-methyl-1H-pyrazol-4-yl)imidazo[1,2-c]pyrimidine]
100 to 1000	100 to 1000	100 to 1000	100 to 1000	Cn1cc(-c2cc3nccn3c(-c3cnn(C4(CCF)CN(S(=O)(=O)CC5CC5)C4)c3)n2)cn1 [Example 87, 5-(1-(1-((cyclopropylmethyl)sulfonyl)-3-(2-fluoroethyl)azetidin-3-yl)-1H-pyrazol-4-yl)-7-(1-methyl-1H-pyrazol-4-yl)imidazo[1,2-c]pyrimidine]
10 to 100	100 to 1000	10 to 100	100 to 1000	CCCC1(n2cc(-c3nc(-c4cnn(C)c4)cc4nccn34)cn2)CN(S(=O)(=O)C(F)(F)F)C1 [Example 88, 7-(1-methyl-1H-pyrazol-4-yl)-5-(1-(3-propyl-1-((trifluoromethyl)sulfonyl)azetidin-3-yl)-1H-pyrazol-4-yl)imidazo[1,2-c]pyrimidine]
< 10	100 to 1000	10 to 100	10 to 100	COCCn1cc(-c2cc3nccn3c(-c3cnn(C4(CCF)CN(S(=O)(=O)C(F)(F)F)C4)c3)n2)cn1 [Example 89, 5-(1-(3-(2-fluoroethyl)-1-((trifluoromethyl)sulfonyl)azetidin-3-yl)-1H-pyrazol-4-yl)-7-(1-(2-methoxyethyl)-1H-pyrazol-4-yl)imidazo[1,2-c]pyrimidine]
10 to 100	10 to 100	10 to 100	10 to 100	CC=CCC1(n2cc(-c3nc(-c4cnn(C)c4)cc4nccn34)cn2)CN(S(=O)(=O)C(F)(F)F)C1 [Example 90, 5-(1-(3-(but-2-en-1-yl)-1-((trifluoromethyl)sulfonyl)azetidin-3-yl)-1H-pyrazol-4-yl)-7-(1-methyl-1H-pyrazol-4-yl)imidazo[1,2-c]pyrimidine]
< 10	100 to 1000	10 to 100	10 to 100	C=CCC1(n2cc(-c3nc(-c4cnn(C)c4)cc4nccn34)cn2)CN(S(=O)(=O)C(F)(F)F)C1 [Example 91, 5-(1-(3-allyl-1-((trifluoromethyl)sulfonyl)azetidin-3-yl)-1H-pyrazol-4-yl)-7-(1-methyl-1H-pyrazol-4-yl)imidazo[1,2-c]pyrimidine]
